Assay results: article PMC11938014, “Development and Application of Small Molecule–Peptide Conjugates as Cathepsin K-Specific Covalent Irreversible Inhibitors in Human Osteoclast and Lung Cancer” (JACS Au, 2025)

Molecular target: T1, CTSK in human OCs (Homo sapiens, UniProt P43235)
T1 construct: endogenous in cells; host or cells: primary human osteoclasts differentiated from blood monocytes with M-CSF and RANKL
T1 sequence (P43235 115-329): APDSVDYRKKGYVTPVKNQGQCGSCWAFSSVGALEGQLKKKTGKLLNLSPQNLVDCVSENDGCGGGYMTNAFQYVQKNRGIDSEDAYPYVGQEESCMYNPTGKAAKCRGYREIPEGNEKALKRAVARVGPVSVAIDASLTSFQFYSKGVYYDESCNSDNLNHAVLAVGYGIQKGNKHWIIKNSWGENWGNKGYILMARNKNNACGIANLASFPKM
Assay: Gel-based residual cathepsin activity in human osteoclasts (GB123) and immunoblot
Assay type: cell-based
Method: Figure 6 CTSK inhibition in human osteoclasts. (a) Scheme of the process of maturation of osteoclasts (OCs) derived from human monocytes in the presence of RANKL and M-CSF. (b) Representative pictures of bone resorption after incubation with human OCs treated with vehicle or inhibitors for 10–14 days. Bone resorption was observed by a toluidine blue stain. Increased staining indicates a higher number of resorption pits and greater bone resorption. (c) Quantitative analysis of pit formation in bone slices after incubation with OC treated with GD20 or ODN (1, 5 μM) relative to vehicle treated slices. Data represent mean ± standard errors, and asterisks represent p values relative to control, *p < 0.05, **p < 0.01, ***p < 0.001, n = 3 bone slices. (d) Representative images of tartrate-resistant acid phosphatase (TRAP) staining of the human osteoclasts on bone slices in the presence of vehicle or inhibitors, as indicated. […] (e) Quantification of osteoclasts number on bone slices after inhibitor treatment, detected by TRAP staining. (f) Human OCs were treated with vehicle or increasing concentrations of GD20 for 11 days (changing the medium every 2–3 days). The activity of CTSK in the cells was detected by 2 h labeling with a pan-cathepsin activity-based probe, GB123, followed by a fluorescence scan of the SDS-PAGE detecting CTSK attached to the probe; the red arrow points to the bands of CTSK (above 25 kDa). CTSK immunoblot of the same OCs is presented aside.
Cells were seeded 3 × 10^6 per 24-well plate (Primaria, Corning) in 1 mL of RPMI 1640 medium supplemented with 10% FBS and 50 μg/mL gentamicin. The next day, the medium was removed, and the adherent cells were washed with α-MEM and cultured for 14 consecutive days in α-MEM supplemented with 10% FBS, 1% penicillin, 1% streptomycin (Biological Industries), 100 ng/mL RANKL (R&D Systems), and 25 ng/mL M-CSF (R&D Systems) (for osteoclast) or with 25 ng/mL M-CSF and IL-4 (macrophage). Every 3 days, the media was changed with the required amount of M-CSF and RANKL until the giant osteoclasts appeared or with M-CSF and IL-4. […]

CC(C)C[C@H](N[C@@H](c1ccc(-c2ccc(S(C)(=O)=O)cc2)cc1)C(F)(F)F)C(=O)NCC(=O)COC(=O)[C@@H]1CCCN1C(=O)[C@H](CC(C)C)NC(=O)OCC1c2ccccc2-c2ccccc21 [GD20]
CTSK activity in human OC (1 μM, 11 days, GB123 labeling): blocked most of the CTSK activity | CTSB activity in human OC (accompanying CTSK inhibition, GB123 labeling): increase in CTSB activity | CTSK protein levels by immunoblot (all inhibitor concentrations): elevated CTSK protein levels
